# Results as given in patent US11439631B2, “Use of a glutarimide derivative to treat diseases related to the aberrant activity of cytokines” (“CHEMIMMUNE THERAPEUTICS” LIMITED LIABILITY COMPANY, priority 2017, dated 2022).
# Tests used:
# [1] = test system: thermal pain irritation (hot plate); experiment: Thermal pain irritation model hot plate; format: in vivo, Balb/c mice; details: Compound 1 30 mg/kg, Ketorol 15 mg/kg, M ± m, n = 12
# Experimental: The model of thermal pain irritation “hot plate” was carried out according to the standard procedure [Valdman A. V., Ignatov Y. D. Central mechanisms of pain. L.: Nauka, 1976]. The test compound was administered to Balb/c mice intragastrically, once. After 1, 4, 6, 12, 24 hours after the administration of the preparation, the “hot plate” test was carried out. To conduct the “hot plate” test, the mice were placed on the hot plate, the temperature (+55±1° C.) of which is constant. The time of first manifestations of the pain response in mice (paw licking, jumping) was registered and the mean latent time of the threshold of pain sensitivity (TPS, sec) in each group was calculated.
# mouse model of psoriasis = experiment: Mouse model of psoriasis (Aldar cream, 5% imiquimod): ear thickness and clinical signs; format: in vivo, female Balb/c mice; details: Compound 1 30 mg/kg, Neotigason 5 mg/kg, M ± m, n = 20
# Experimental: The induction of psoriasis in mice was carried out according to the standard procedure [European Journal of Pharmacology. 2015. V. 756. P. 43-51]. Aldar cream (5% imiquimod) was applied to female Balb/c mice on the inner side of the right ear once daily by 30 mg/mouse for 7 days (0-6th day). Vaseline was applied to the intact animals. […] Euthanasia was carried out 24 hours later (7th day) after the last application of the Aldar cream. Daily on the 0, 2nd, 3rd, 4th, 5th, 6th day, the thickness of the right ear was measured in the morning before the next application of the Aldar cream and before the euthanasia. After the euthanasia, blood was collected from the heart cavities, serum was isolated. The content of MCP1 was determined in blood serum by an enzyme-linked immunosorbent assay method, using test systems Mouse CCL2 (MCP-1) Uncoated ELISA Kit (Invitrogen).
# 2011. V. 88(1-2). P. 100-113].
SMILES,"TPS, % to the values before the administration of the preparation, after 1 hours ([1]; 1 hour after single intragastric dose) [%]","TPS, % to the values before the administration of the preparation, after 4 hours ([1]; 4 hours after single intragastric dose) [%]","TPS, % to the values before the administration of the preparation, after 6 hours ([1]; 6 hours after single intragastric dose) [%]","TPS, % to the values before the administration of the preparation, after 12 hours ([1]; 12 hours after single intragastric dose) [%]","TPS, % to the values before the administration of the preparation, after 24 hours ([1]; 24 hours after single intragastric dose) [%]","The gain of the ear thickness at the determined day of study to day 0, Day 2 (mouse model of psoriasis; Day 2, intragastric once daily)","The gain of the ear thickness at the determined day of study to day 0, Day 3 (mouse model of psoriasis; Day 3, intragastric once daily)","The gain of the ear thickness at the determined day of study to day 0, Day 4 (mouse model of psoriasis; Day 4, intragastric once daily)","Clinical signs of psoriasis, Erythema, Day 4 (mouse model of psoriasis; Day 4, score 0-4 (Table 1))","Clinical signs of psoriasis, Flakes, Day 4 (mouse model of psoriasis; Day 4, score 0-4 (Table 1))","Clinical signs of psoriasis, Thickening, Day 4 (mouse model of psoriasis; Day 4, score 0-4 (Table 1))","The gain of the ear thickness at the determined day of study to day 0, Day 5 (mouse model of psoriasis; Day 5, intragastric once daily) [%]","The gain of the ear thickness at the determined day of study to day 0, Day 6 (mouse model of psoriasis; Day 6, intragastric once daily) [%]","Clinical signs of psoriasis, Erythema, Day 6 (mouse model of psoriasis; Day 6, score 0-4 (Table 1))","Clinical signs of psoriasis, Flakes, Day 6 (mouse model of psoriasis; Day 6, score 0-4 (Table 1))","Clinical signs of psoriasis, Thickening, Day 6 (mouse model of psoriasis; Day 6, score 0-4 (Table 1))"
O=C(c1ccccc1)c1ccc2n1CCC2C(=O)O (stereo not shown) [Ketorol],146.4 ± 16.6,195.9 ± 30.0,176.6 ± 34.0,166.5 ± 25.3,159.7 ± 22.4,,,,,,,,,,,
"COc1cc(C)c(/C=C/C(C)=C/C=C/C(C)=C/C(=O)O)c(C)c1C [Neotigason, reference compound]",,,,,,14.2 ± 1.9*& %,27.5 ± 1.8*& %,45.9 ± 2.5*& %,1.2 ± 0.1*& points,0.0 ± 0.0& points,1.4 ± 0.1*& points,68.9 ± 1.8,83.1 ± 1.4,1.6 ± 0.1*& points,0 ± 0& points,1.3 ± 0.1*& points
